Assay results published in the NIST ThermoML archive (doi:10.1021/je060271a).
“And” between values parts separate entries of the source, which are not always exact repeats. Equal entries are not always repeated.

Details: 303.15 K, Liquid, Vibrating tube method

CCCCCC(=O)OCC(COC(=O)CCCCC)(COC(=O)CCCCC)COC(=O)CCCCC [pentaerythritol tetrahexanoate]
Details	mass density
17124 kPa	999 kg/m3
17144 kPa	998.9 kg/m3
17164 kPa	998.9 kg/m3
17186 kPa	998.9 kg/m3
17201 kPa	998.9 kg/m3
17216 kPa	998.9 kg/m3
17229 kPa	999.1 kg/m3
17243 kPa	999 kg/m3
17245 kPa	999 kg/m3
17247 kPa	999.1 kg/m3
17248 kPa	999.1 kg/m3
17250 kPa	999.1 kg/m3
17251 kPa	999 kg/m3
17252 kPa	999 kg/m3
17253 kPa	999 kg/m3
17254 kPa	999.1 kg/m3
17256 kPa	999 kg/m3
17265 kPa	999 kg/m3
17267 kPa	999.1 kg/m3
17272 kPa	999 kg/m3
17282 kPa	999 kg/m3
17286 kPa	999 kg/m3
17289 kPa	999 kg/m3
17290 kPa	998.9 kg/m3 and 999 kg/m3
17296 kPa	999.1 kg/m3
17310 kPa	999.2 kg/m3
17330 kPa	999.1 kg/m3
17334 kPa	999.1 kg/m3
17348 kPa	999.1 kg/m3
17353 kPa	999 kg/m3
17354 kPa	999.2 kg/m3
17377 kPa	999.2 kg/m3
17400 kPa	999.1 kg/m3
17428 kPa	999.2 kg/m3
17452 kPa	999.1 kg/m3
17475 kPa	999.3 kg/m3
17503 kPa	999.1 kg/m3
17526 kPa	999.1 kg/m3
17550 kPa	999.3 kg/m3
17577 kPa	999.3 kg/m3
17917 kPa	999.3 kg/m3
17939 kPa	999.5 kg/m3
17961 kPa	999.4 kg/m3
17988 kPa	999.5 kg/m3
18010 kPa	999.4 kg/m3
18037 kPa	999.5 kg/m3
18060 kPa	999.6 kg/m3
18083 kPa	999.5 kg/m3
18105 kPa	999.5 kg/m3
18132 kPa	999.4 kg/m3
18155 kPa	999.6 kg/m3
18178 kPa	999.7 kg/m3
18205 kPa	999.6 kg/m3
18228 kPa	999.6 kg/m3
18256 kPa	999.6 kg/m3
18279 kPa	999.6 kg/m3
18302 kPa	999.6 kg/m3
18325 kPa	999.7 kg/m3
18353 kPa	999.6 kg/m3
18377 kPa	999.8 kg/m3
18400 kPa	999.7 kg/m3
18428 kPa	999.7 kg/m3
18452 kPa	999.6 kg/m3
18476 kPa	999.8 kg/m3
18504 kPa	999.8 kg/m3
18528 kPa	999.8 kg/m3
18551 kPa	999.7 kg/m3
18580 kPa	999.9 kg/m3
18604 kPa	1000 kg/m3
18628 kPa	1000 kg/m3
18657 kPa	999.8 kg/m3
18917 kPa	1000 kg/m3
18943 kPa	1000 kg/m3
18968 kPa	999.9 kg/m3
18998 kPa	1000 kg/m3
19024 kPa	1000 kg/m3
19049 kPa	1000.2 kg/m3
19074 kPa	1000 kg/m3
19104 kPa	1000.1 kg/m3
19128 kPa	1000 kg/m3
19154 kPa	1000.1 kg/m3
19177 kPa	1000.1 kg/m3
19199 kPa	1000.2 kg/m3
19226 kPa	1000.2 kg/m3
19249 kPa	1000.3 kg/m3
19273 kPa	1000.2 kg/m3
19296 kPa	1000.3 kg/m3
19323 kPa	1000.1 kg/m3
19346 kPa	1000.2 kg/m3
19374 kPa	1000.3 kg/m3
19397 kPa	1000.3 kg/m3
19420 kPa	1000.3 kg/m3
19443 kPa	1000.3 kg/m3
19471 kPa	1000.3 kg/m3
19495 kPa	1000.2 kg/m3
19518 kPa	1000.3 kg/m3
19546 kPa	1000.4 kg/m3
19570 kPa	1000.4 kg/m3
19595 kPa	1000.3 kg/m3
19618 kPa	1000.4 kg/m3
19642 kPa	1000.4 kg/m3
19670 kPa	1000.4 kg/m3
19694 kPa	1000.4 kg/m3
19718 kPa	1000.6 kg/m3
19747 kPa	1000.4 kg/m3
19771 kPa	1000.5 kg/m3
19795 kPa	1000.5 kg/m3
19824 kPa	1000.4 kg/m3
19849 kPa	1000.5 kg/m3
19873 kPa	1000.6 kg/m3
19904 kPa	1000.6 kg/m3
19928 kPa	1000.6 kg/m3
19952 kPa	1000.6 kg/m3
19977 kPa	1000.5 kg/m3
20006 kPa	1000.7 kg/m3
20031 kPa	1000.6 kg/m3
20056 kPa	1000.7 kg/m3
20081 kPa	1000.6 kg/m3
20111 kPa	1000.7 kg/m3
20136 kPa	1000.8 kg/m3
20162 kPa	1000.8 kg/m3
20192 kPa	1000.7 kg/m3
20217 kPa	1000.9 kg/m3
20248 kPa	1000.8 kg/m3
20274 kPa	1000.8 kg/m3
20299 kPa	1000.9 kg/m3
20324 kPa	1000.8 kg/m3
20350 kPa	1000.8 kg/m3
20381 kPa	1000.8 kg/m3
20406 kPa	1000.9 kg/m3
20432 kPa	1000.9 kg/m3
20463 kPa	1000.9 kg/m3
20489 kPa	1000.9 kg/m3
20515 kPa	1000.8 kg/m3
20547 kPa	1000.9 kg/m3
20573 kPa	1001 kg/m3
20600 kPa	1000.9 kg/m3
20627 kPa	1001 kg/m3
20658 kPa	1001 kg/m3
20685 kPa	1001.1 kg/m3
20716 kPa	1001 kg/m3
20743 kPa	1001 kg/m3
20770 kPa	1001 kg/m3
20797 kPa	1001 kg/m3
20829 kPa	1001 kg/m3
